Converted amounts (≈) assume the structure as drawn. Bridges are numbered along the chain shown (N, C = ends). Where no end group is shown, it is not given here. [ ]: non-standard residue; d: D form. GABA = NCCCC(=O)O

Series [1] deals with 4T1 tumours. The series can be described thus: Pharmacodynamics of doxorubicin and its liposomes in 4T1 tumour model. The class given is in vivo, Balb/c mice. To be noted: day 20.
Description: (§3) Female Balb/c mice were inoculated with 5×10^5 4 T1 cells and randomly divided into 7 groups: saline group (NS), Dox group, PEG-Lipo-Dox group, iRGD-Lipo-Dox group, nRGD-Lipo-Dox group, Dox and nRGD coadministration group (Dox+nRGD), PEGylated liposome and nRGD coadministration group (PEG-Lipo-Dox+nRGD). The mice were injected with 5 mg/kg Dox equivalents of drugs or various formulations on day 8 and day 12. The single dose of the coadministration group included two shoots; one shoot was an equivalent drug or formulation of 5 mg/kg Dox, while the other shoot was 4.8 mg/kg nRGD. The volume and body weight of the mice were measured every two days. Some mice were sacrificed for mechanism and toxicity study on day 20. The average tumour growth inhibition (TGI) was calculated after tumour weighing: TGI=(1−(mean tumour weight of treatment group/(average tumour weight of control group))×100%. The antitumour effect and mechanism were studied by HE, immunohistochemistry, RT-PCR, immunofluorescence and ELISA. Plasma samples were collected for ELISA detection. Tissue samples were evaluated for toxicity by HE staining. The remaining mice were studied for survival time.
A further series concerns Raw 264.7 cells. The series is described as follows: Median lethal dose (IC50) against Raw 264.7 cells at 24 h. The format is cell-based. An excerpt:
(§1) The targeting ability of nRGD was studied through in vitro and in vivo experiments by the inventors.

The next series deals with HUVEC. The series is described as follows: Median lethal dose (IC50) against HUVEC at 24 h. The class given is cell-based. To be noted: n = 3.
Description: as §1

The subject of the next series is 4T1 cells. The series is described as follows: Median lethal dose (IC50) against 4T1 cells at 24 h. The class given is cell-based.
Description: as §1

The subject of series [2] is tumour vessels and tumour-associated macrophages (TAMs). The series is described as follows: In vivo targeting and tumour microenvironment study in 4T1 tumours (immunofluorescence, immunohistochemistry, RT-PCR, ELISA). Further details: species or system Balb/c mice. For orientation: An ELISA detects its analyte on a solid surface through an enzyme-linked reagent.
Description: as §3
In series [3] the test system is CoCl2-treated 4T1 and M2 type macrophages, HUVEC, untreated 4T1 cells. The series can be described thus: Cell uptake experiments. As to conditions: HUVEC with low legumain expression and untreated 4T1 cells. The class given is cell-based.
Description: as §1

The subject of series [4] is 4T1 tumours. The series is described as follows: Pharmacodynamics of paclitaxel and its albumin nanoparticles with nRGD, 4T1 tumour model. The class given is in vivo. As to the method: The mice were injected with 10 mg/kg PTX equivalents of drugs or various formulations on day 8, day 12 and day 16.
Series [5] concerns 4T1 tumours. The series is described as follows: Pharmacological effects of lycobetaine and its nanostructured lipid carriers with nRGD, 4T1 tumour model. The format is in vivo. The procedure: Normal saline group (N. S), IBT group, lycobetaine nanostructured lipid carriers group (IBT-NLC), lycobetaine and nRGD coadministration group (IBT+nRGD), and lycobetaine nanostructured lipid carriers and nRGD coadministration group (IBT-NLC+nRGD). The mice were injected with 12 mg/kg IBT equivalents of drugs or various formulations on day 8, day 9 and day 10.

In series [6] the test system is 4T1 tumours. The series is described as follows: Pharmacological effects of docetaxel and its micells with nRGD, 4T1 tumour model. The format is in vivo. The procedure: Female Balb/c mice were inoculated with 5×10^5 4T1 cells and randomly divided into 5 groups: normal saline group (N. S), TXT group, docetaxel micells group (TXT-micells), docetaxel and nRGD coadministration group (TXT+nRGD), and docetaxel micells and nRGD coadministration group (TXT-micells+nRGD). The mice were injected with 15 mg/kg TXT equivalents of drugs or various formulations on day 8, day 10 and day 12.

For another series, the system named is glioma. The series can be described thus: Glioma model survival. To be noted: lycobetaine and octreotide liposomes, peptide as a mixture or on the liposome surface. The class given is in vivo, mice. An excerpt:
Mice having glioma were randomly divided into 9 groups, 20 mice each: normal saline group (N.S), teniposide group, free lycobetaine and octreotide group (free IBT & OCT), lycobetaine and octreotide PEGylated liposomes group (PEG-Liposome), liposomes and iRGD coadministration group (PEG-Liposome+iRGD), liposomes and nRGD coadministration group (PEG-Liposome+nRGD), iRGD modified lycobetaine and octreotide PEGylated liposomes (iRGD-Liposome), nRGD modified lycobetaine and octreotide PEGylated liposomes (nRGD-Liposome), liposomes and nRGD coadministration group (blank). The mice were injected with 10 mg/kg IBT and […] OCT equivalents of drugs or various formulations on day 5, day 7, day 9, day 11 and day 12. As positive control group, mice were injected with 10 mg/kg teniposide on day 5, day 7, day 9, day 11 and day 12. […] The survival of the mice was recorded daily and the survival curve was plotted.

For series [7], the system named is 4T1 tumours. The series is described as follows: Screening of the administration manner of nRGD with doxorubicin, 4T1 model. The class given is in vivo, Balb/c mice. To be noted: nRGD in combination with, prior to or after doxorubicin.
Description: Female Balb/c mice were inoculated with 5×10^5 4 T1 cells and randomly divided into 3 groups. nRGD was administered in combination with doxorubicin, nRGD was administered prior to doxorubicin or after doxorubicin.
For series [8], the system named is 4T1 tumours. The series can be described thus: Screening of the working concentration of nRGD with doxorubicin, 4T1 model. The format is in vivo, Balb/c mice. To be noted: doxorubicin 5 mg/kg; nRGD 1, 2, 4, 8, 10 mg/kg. As to the method:
The dose of doxorubicin was 5 mg/kg, while the nRGD concentration was 1, 2, 4, 8, 10 mg/kg, respectively.

The conditions of series [9]: mouse, in vivo.
Series [10] deals with 4T1 tumours. The series is described as follows: Evaluation of 4Abu linked RGD-AAN peptides with doxorubicin, 4T1 model. The class given is in vivo, Balb/c mice. As to conditions: doxorubicin 5 mg/kg with peptide. As to the method: (§2) The dose of doxorubicin was 5 mg/kg for all groups. Two groups were administrated with above-mentioned peptides, respectively.
The subject of series [11] is 4T1 tumours. The series can be described thus: Evaluation of peptide-bond linked RGD-AAN peptides with doxorubicin, 4T1 model. The class given is in vivo, Balb/c mice. To be noted: doxorubicin 5 mg/kg with peptide. As to the method: as §2
The target of another series is T1, legumain (UniProt O89017 18-325, limits assumed).
T1 sequence (looked up): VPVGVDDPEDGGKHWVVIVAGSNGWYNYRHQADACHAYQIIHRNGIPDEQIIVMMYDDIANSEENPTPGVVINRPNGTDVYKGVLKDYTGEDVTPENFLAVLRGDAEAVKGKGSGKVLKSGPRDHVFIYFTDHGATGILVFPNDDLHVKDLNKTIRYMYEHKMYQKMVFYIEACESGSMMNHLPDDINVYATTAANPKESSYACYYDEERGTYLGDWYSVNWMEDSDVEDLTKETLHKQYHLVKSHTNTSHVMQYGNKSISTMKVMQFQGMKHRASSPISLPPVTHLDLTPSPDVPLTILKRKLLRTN
The series is described as follows: cell-based or functional assay.

On to `COc1cccc2c1C(=O)c1c(O)c3c(c(O)c1C2=O)C[C@@](O)(C(=O)CO)C[C@@H]3O[C@H]1C[C@H](N)[C@H](O)[C@H](C)O1` [Dox, doxorubicin], for which the tumour weight in the series on 4T1 tumours [1] (5 mg/kg Dox equivalents on day 8 and day 12, coadministration with 4.8 mg/kg nRGD) was 1592.0 ± 98.0 mg. Also, the “tumour growth inhibition rate (TGI)” value in the series with 4T1 tumours [1] (from tumour weight versus control group) amounted to 26.3%. Besides, in the series with Raw 264.7 cells (n = 3, IL-4 stimulated), the “IC50 Dox, Raw264.7 IL-4” value was 0.36 ± 0.07 µg/mL (≈ 0.662 µM). In addition, the “IC50 Dox, Raw264.7 LPS” value in the series with Raw 264.7 cells (n = 3, LPS stimulated) was determined as 0.81 ± 0.22 µg/mL (≈ 1.49 µM). Further, the “IC50 Dox, Raw264.7 Control” value with Raw 264.7 cells (n = 3, untreated cells) is 0.41 ± 0.08 µg/mL (≈ 0.754 µM). For the same molecule, the “IC50 Dox, HUVEC” value in the series on HUVEC amounted to 18.12 ± 6.13 µg/mL (≈ 33.3 µM). Also, the “IC50 Dox, 4T1 CoCl2” value in the series with 4T1 cells (n = 3, CoCl2 stimulated) came to 16.54 ± 2.57 µg/mL (≈ 30.4 µM). In addition, the “IC50 Dox, 4T1 control” value with 4T1 cells (n = 3, untreated cells) was determined as 26.56 ± 1.96 µg/mL (≈ 48.9 µM). Further, the “number of regulatory T cells and MDSCs at the tumour sites” value in [2] (mouse, in vivo) is “increased”.
Regarding CCRGDK(NAA)GPDC (CCRGDKGPDC) [nRGD], in series [3], the cell uptake result is reported as “significantly reduced compared to iRGD”. Further, in series [2] (tumour sections), the “accumulation of Dox in the tumour site” value is “increased the accumulation of Dox in the tumour site”. The anti-tumour efficacy result with 4T1 tumours [4] (10 mg/kg PTX equivalents day 8, 12, 16 with 4.8 mg/kg nRGD) was “increased the anti-tumour efficacy of PTX and PTX-BSA”; in the series with 4T1 tumours [5] (12 mg/kg IBT equivalents day 8, 9, 10 with 4.8 mg/kg nRGD) it was “increased the anti-tumour efficacy of PTX and PTX-BSA”; in the series with 4T1 tumours [6] (15 mg/kg TXT equivalents day 8, 10, 12 with 4.8 mg/kg nRGD) it was “increased the anti-tumour efficacy of TXT and TXT-micells”. In addition, the “body weight and toxicity” value in the series on 4T1 tumours [4] (mouse, in vivo) is listed as “did not reduce the body weight of the mice or increase the toxicity”; with 4T1 tumours [5] (mouse, in vivo), “did not reduce the body weight of the mice or increase the toxicity”; with 4T1 tumours [6] (mouse, in vivo), “did not reduce the body weight of the mice or increase the toxicity”. For the same molecule, the life period entry in the series on glioma is listed as “longer life period than the iRGD group”. Moreover, the “anti-tumour effects of different manners of administration” value with 4T1 tumours [7] is reported as “no significant differences”. The “Dox antitumour efficacy versus nRGD concentration” value in the series with 4T1 tumours [8] was “positively correlated with Dox antitumour efficacy”. Moreover, the weight of mice result in [9] was “did not reduce the weight of mice”.
For the molecule CRGD-4Abu-NAA (CRGD[GABA]NAA), the efficacy of doxorubicin entry in the series on 4T1 tumours [10] was “can improve the efficacy of doxorubicin”.
Turning to “CRGDNAA (not fully specified (residue 4))”, the efficacy of doxorubicin entry with 4T1 tumours [11] is “can improve the efficacy of doxorubicin”.
In the case of “c(RGDfK)-4Abu-AAN (cyclo(RGD[dF]K[GABA]AAN); not fully specified)”, in the series with 4T1 tumours [10], the efficacy of doxorubicin entry was “can improve the efficacy of doxorubicin”.
In the case of “c(RGDfK)AAN (cyclo(RGD[dF]KAAN); also: attachment point of AAN on cyclic RGDfK not given here)”, in the series on 4T1 tumours [11], the efficacy of doxorubicin entry is given as “can improve the efficacy of doxorubicin”.

B1: nRGD polypeptide CCRGDK(NAA)GPDC, coupled to the surface of doxorubicin liposomes (nRGD-Lipo-Dox) (peptide)
peptide: CCRGDKGPDC
modifications: disulfide 2-10; not fully specified (residue 6); printed as CCRGDK(NAA)GPDC; also: coupled to Mal-PEG2000-DSPE liposome via cysteine
For the molecule B1, in the series with legumain, the “Median lethal dose (IC50) of Dox, 4T1 cells stimulated with CoCl2, 24 h” value turned out to be 37.9 µg/mL and the “Median lethal dose (IC50) of Dox, Raw264.7 cells stimulated with IL-4, 24 h” value stood at 23.5 µg/mL.

Source of the values: patent US10428114B2, “Type polypeptide targeting tumours” (SICHUAN UNIVERSITY, priority 2015, dated 2019).
